From PubChem BioAssay (NCI)
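Step 1: Grow cells in 96-well plates. Step 2: Expose to compound for 48 hours at 5 concentrations. Step 3: Interpolate endpoints linearly; if unreached, use highest concentration. At the GI50, growth is halved. TGI: total growth inhibition.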

Columns and labels:
Test in all cases: NCI-60 cell line screen, 48 h
HT29 colon = tested on: HT29 colon
OVCAR-5 ovarian = tested on: OVCAR-5 ovarian
RPMI-8226 leukemia = tested on: RPMI-8226 leukemia
RXF 393 renal = tested on: RXF 393 renal
SF-268 CNS = tested on: SF-268 CNS
SF-295 CNS = tested on: SF-295 CNS
SK-MEL-5 melanoma = tested on: SK-MEL-5 melanoma
UO-31 renal = tested on: UO-31 renal
SK-OV-3 ovarian = tested on: SK-OV-3 ovarian

Compound | TGI (HT29 colon) [µM] | TGI (OVCAR-5 ovarian) [µM] | TGI (RPMI-8226 leukemia) [µM] | TGI (RXF 393 renal) [µM] | TGI (SF-268 CNS) [µM] | TGI (SF-295 CNS) [µM] | TGI (SK-MEL-5 melanoma) [µM] | TGI (UO-31 renal) [µM] | TGI (SK-OV-3 ovarian) [µM] | GI50 (RPMI-8226 leukemia) [µM]
COc1ccc(-c2c(C(=O)Nc3ccccc3)c(-c3ccccc3)n(C3OC(CO)C(O)C(O)C3O)c(=S)c2C#N)cc1 (stereo not drawn) | > 100 | > 100 | > 100 | > 100 | > 100 | > 100 | > 100 | > 100 |  | 
COc1ccc(/C=N/Nc2nc3ccccc3c(=O)n2-c2ccccc2)cc1 | > 100 | > 100 |  | > 100 | > 100 | > 100 | > 100 | 14.9 | > 100 | 
CC(C)(C)OC(=O)N1CCC[C@H]1CSC[C@@H]1CCCN1C(=O)OC(C)(C)C | 34.9 | > 100 |  | 69 | > 100 | > 100 | 32.7 | 74.9 | > 100 | 
NC(=S)NS(=O)(=O)c1ccc(F)cc1 | > 100 | > 100 | > 100 | > 100 | > 100 | > 100 | > 100 |  | > 100 | 
C[C@H]1ON2CCC[C@@H]2[C@@H]1C(=O)N1C2CC3CCC2(CS1(=O)=O)C3(C)C (stereo partly drawn) | > 100 | > 100 |  | > 100 | > 100 | > 100 | > 100 |  | > 100 | 
Cc1c(/C=N\NC(=S)N(C)CCN(C)C(=S)N/N=C\c2c(C)n(C)n(-c3ccccc3)c2=O)c(=O)n(-c2ccccc2)n1C | > 100 | > 100 |  | > 100 | > 100 | > 100 | > 100 | > 100 | > 100 | 
O=C1C2=Cc3ccccc3CCN2c2ccc([N+](=O)[O-])cc21 | > 100 | > 100 | > 100 | > 100 | > 100 | > 100 | > 100 | 97.7 |  | 
CCOC(=O)C(NC(=O)Nc1ccccc1F)(OC)C(F)(F)F (stereo not drawn) | > 100 | > 100 | > 100 | > 100 | > 100 |  | > 100 | > 100 | > 100 | 
COc1cc([C@@H]2c3cc4c(cc3[C@@H](N=Cc3ccc(C(=O)O[C@H]5C[C@H]6OC[C@@]6(OC(C)=O)[C@H]6[C@H](OC(=O)c7ccccc7)[C@]7(O)C[C@H](OC(=O)[C@H](OC(=O)c8ccc(C=N[C@@H]9c%10cc%11c(cc%10[C@@H](c%10cc(OC)c(O)c(OC)c%10)[C@H]%10C(=O)OC[C@@H]%109)OCO%11)cc8)[C@@H](NC(=O)c8ccccc8)c8ccccc8)C(C)=C([C@@H](OC(C)=O)C(=O)[C@]56C)C7(C)C)cc3)C3COC(=O)C32)OCO4)cc(C)c1O (stereo partly drawn) | > 25.2 | > 23.6 | > 50 | > 50 | > 50 | > 50 | > 50 |  | > 39.3 | 
c1ccc(NC2(c3nnnn3C3CCCCC3)CCNCC2)cc1 | 35.8 | 43.4 | 59.6 |  | > 100 | 34.6 | 34.6 | 27.7 | 83.4 | 
COc1ccc(C(c2ccccc2)N2C(=O)CCC2C(=O)O)cc1OC (stereo not drawn) | > 100 | > 100 | > 100 |  | > 100 | > 100 | > 100 | > 100 | > 100 | 
OCC1OC(NC(=S)NCSCCC(F)(F)C(F)(F)C(F)(F)C(F)(F)C(F)(F)C(F)(F)F)C(O)C(O)C1O (stereo not drawn) | > 100 | > 100 | > 100 | > 100 | > 100 | 60.5 |  | > 100 | > 100 | 
COC(=O)C1CCCCCCCCCCC12SCCCS2 (stereo not drawn) | 91.5 | 34.7 |  | 36.4 | 56.5 | 39 | 41.9 | 38.8 | > 100 | 
CC(=O)/C(=C\n1c(=S)[nH]c2ccc([N+](=O)[O-])cc21)C(=O)Nc1ccccc1C | > 100 | > 100 | > 100 | > 100 |  | > 100 | > 100 |  | > 100 | 
COc1ccc2c(c1)CC[C@@H]1C2CC[C@]2(C)C(=O)N(C)C(=O)CC12 (stereo partly drawn) | > 100 | > 100 |  | > 100 | > 100 | > 100 | > 100 | > 100 | > 100 | 
CC(C)Cn1cnnc1NS(=O)(=O)c1cc(C(=O)NN)c(Cl)cc1S | > 10 | > 10 | > 10 | > 10 | > 10 | > 10 | > 10 |  | > 10 | 
O=C(CC(C(=O)c1ccsc1)c1cccs1)c1ccsc1 (stereo not drawn) | > 100 | > 100 | > 100 |  | > 100 | > 100 | > 100 | > 100 | > 100 | 
O=C1c2cc([N+](=O)[O-])cnc2S(=O)(=O)N1c1ccc(Oc2ccccc2)cc1 |  | > 100 | > 100 | > 100 |  | > 100 |  | > 100 | > 100 | 
Cc1[nH]c2ncn(N)c(=N)c2c1Cc1ccccc1 | > 100 | > 100 | > 100 |  |  | > 100 | > 100 | > 100 | > 100 | 
O=c1[nH]nc(Cc2ccc(Cl)cc2)n1Nc1ccccc1 | > 100 | > 100 |  |  |  | > 100 | > 100 | > 100 |  | 
COC1(CCO)CC=CCC1(CCO)OC (stereo not drawn) | > 100 | > 100 | > 100 |  | > 100 | > 100 | > 100 | > 100 | > 100 | 
COc1cc(-c2c(C(C)=O)c(-c3ccccc3)n(C3OC(COC(C)=O)C(OC(C)=O)C(OC(C)=O)C3OC(C)=O)c(=S)c2C#N)ccc1O (stereo not drawn) | > 100 | > 100 | > 100 | > 100 | > 100 | > 100 | > 100 | > 100 |  | 34.5
CN(C)c1ccc(C=Nc2ccc(-c3nc4ccccc4o3)cc2)cc1 | > 100 | > 100 |  |  | > 100 |  | 29.8 | > 100 | > 100 | 
O=[N+]([O-])c1ccc2nc(/C=C(\O)c3ccccc3)c(/C=C(\O)c3ccc(Cl)cc3)nc2c1 | > 100 | > 100 |  | 83.9 | > 100 | > 100 | > 100 | > 100 | > 100 | 
